A short description of the test: Biological Methods: HIV cell culture assay-MT-2 cells, 293T cells and the proviral DNA clone of NL4-3 virus were obtained from the NIH AIDS Research and Reference Reagent Program. MT-2 cells were propagated in RPMI 1640 media supplemented with 10% heat inactivated fetal bovine serum (FBS), 100 jag/ml penicillin G and up to 100 units/mL streptomycin. The 293T cells were propagated in DMEM media supplemented with 10% heat inactivated FBS, 100 μg/mL penicillin G and 100 μg/mL streptomycin. A recombinant NL4-3 proviral clone, in which a section of the nef gene was replaced with the Renilla luciferase gene, was used to make the reference virus used in these studies. The recombinant virus was prepared through transfection of the recombinant NL4-3 proviral clone into 293T cells using Transit-293 Transfection Reagent from Mirus Bio LLC (Madison, Wis.). Supernatant was harvested after 2-3 days and the amount of virus present was titered in MT-2 cells using luciferase enzyme activity as a marker by measuring luciferase enzyme activity. Luciferase was quantitated using the EnduRen Live Cell Substrate from Promega (Madison, Wis.). Antiviral activities of compounds toward the recombinant virus were quantified by measuring luciferase activity in MT-2 cells infected for 4-5 days with the recombinant virus in the presence of serial dilutions of the compound. Format: cell-based.

pEC50: −log10 of the molar value.

Take `C[C@H]1CCc2ccccc2N1S(=O)(=O)NC(=O)N[C@@H](Cc1cc(F)cc(F)c1)C(=O)N(C)c1ccc2scnc2c1`: the pEC50 (as a rule, the negative decadic logarithm of the EC50, by convention in mol/L) was 7.05.
Turning to `C[C@@H]1Cc2cccnc2N1S(=O)(=O)NC(=O)N[C@@H](Cc1cc(F)cc(F)c1)C(=O)N(C)c1ccc2scnc2c1`, the pEC50 was 7.70.
For `C[C@H]1Cc2cccnc2N1S(=O)(=O)NC(=O)N[C@@H](Cc1cc(F)cc(F)c1)C(=O)N(C)c1ccc2scnc2c1`, the pEC50 was 7.30.
For `C[C@@H]1CCc2ccccc2N1S(=O)(=O)NC(=O)N[C@@H](Cc1cc(F)cc(F)c1)C(=O)N(C)c1ccc2scnc2c1` the value was 7.00.
The same measure for `CC1CN(S(=O)(=O)NC(=O)N[C@@H](Cc2cc(F)cc(F)c2)C(=O)N(C)c2ccc3scnc3c2)c2ncccc21` (single isomer, unassigned): > 8.00.

These data come from ChEMBL document CHEMBL5726630, “Inhibitors of human immunodeficiency virus replication” (2019).
